The source of these data is PMC5104769, “Concentration-Dependent Dual Mode of Zn Action at Serotonin 5-HT1A Receptors: In Vitro and In Vivo Studies” (Molecular neurobiology, 2015).

SMILES strings stand for the structures.

Assay [1] has as its target T1, human 5-HT1AR stably expressed in HEK293 cells (Homo sapiens, UniProt P08908).
T1 construct: The full-length human 5HTR1A complementary DNA (cDNA); membranes prepared from the cells
T1 sequence (P08908 1-422): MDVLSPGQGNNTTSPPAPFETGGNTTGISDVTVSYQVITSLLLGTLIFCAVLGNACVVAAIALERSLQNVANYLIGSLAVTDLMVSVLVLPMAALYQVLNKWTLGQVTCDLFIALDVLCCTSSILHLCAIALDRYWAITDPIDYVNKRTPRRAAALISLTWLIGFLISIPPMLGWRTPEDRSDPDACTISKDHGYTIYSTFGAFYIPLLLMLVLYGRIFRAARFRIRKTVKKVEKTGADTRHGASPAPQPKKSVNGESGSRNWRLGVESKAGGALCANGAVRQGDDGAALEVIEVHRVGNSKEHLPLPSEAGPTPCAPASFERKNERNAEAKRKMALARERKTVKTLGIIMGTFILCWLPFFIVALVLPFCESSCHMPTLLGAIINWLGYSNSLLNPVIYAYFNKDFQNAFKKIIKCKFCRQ
The experiment in a line: Saturation binding of [3H]-8-OH-DPAT in the absence and presence of Zn. To be noted: Zn vs [3H]-8-OH-DPAT, nonlinear regression of saturation data, equation 1. On the procedure: The full-length human 5HTR1A complementary DNA (cDNA), which was cloned into the mammalian expression vector pcDNA3.1(+), was obtained from the Missouri S&T cDNA Resource Center (www.cdna.org). The receptor cDNA was stably transfected into human embryonic kidney cells (HEK293, ATCC) with the use of Lipofectamine 2000 (Invitrogen).
Cell pellets were thawed and homogenized in 20 volumes of 50 mM Tris–HCl buffer (pH 7.7) containing 0.1 mM EDTA and 10 mM MgCl2, using an Ultra Turrax tissue homogenizer. The pellets were then centrifuged twice at 35,000g for 20 min at 4 °C, with incubation for 15 min at 37 °C in between centrifugations. Membranes were aliquoted in tubes. Membrane protein concentrations were determined using the Pierce™ Coomassie (Bradford) Protein Assay Kit, with bovine serum albumin (BSA) as a standard.
The incubation buffer consisted of 50 mM Tris–HCl (pH 7.7), 10 mM MgCl2, 10 mM pargyline and 0.1 % ascorbic acid. Radioligand binding assays were performed by incubating 30 μg of protein of the membrane suspension in 96-well microtitre plates for 60 min at room temperature with shaking, in a total volume of 200 μl. The binding reactions were stopped by filtration through GF/C Unifilter plates using a harvester (PerkinElmer). The plate filters were dried, and 20 μl of Ultima Gold MV (PerkinElmer) was added. Radioactivity was measured using a MicroBeta TriLux counter (PerkinElmer).
All experiments were performed in triplicate, and the results were obtained from at least three independent experiments. The data are expressed as the mean±S.D. (standard deviation). The experimental data were analysed using GraphPad Prism 5.1 for Windows (GraphPad Software, San Diego California USA, www.graphpad.com).

Assay [2] has as its system 5-HT1A autoreceptor KO mice. The experiment in a line: Forced swim test (FST) in wild-type and 5-HT1A autoreceptor KO mice. Format: in vivo, mouse. To be noted: Zn 5 mg/kg 30 min before FST. The text has this: A conditional knockout approach was used to eliminate the 5-HT1AR in the raphe nuclei in adult mice. To create the conditional 5-HT1AR knockout mice, a TPH2-Cre-ER^T2 mouse line was crossed with a flx-5-HT1A-YFP mouse line. The TPH2-Cre-ER^T2 confers specificity such that only serotonin neurons, which express tryptophan hydroxylase 2 (TPH2), can express Cre recombinase to knockout the 5-HT1AR gene and allow for […] expression. Once the mice reached adulthood (approximately 5–6 postnatal weeks), tamoxifen (180 mg/kg) was injected i.p. every day for five consecutive days (the tamoxifen binds to the ER^T2 domain and enables Cre to enter the nucleus where it can excise the 5-HT1AR gene, allowing for YFP expression as a marker of recombination). The mice were then left undisturbed for at least 14 days to allow for recombination and the turnover of endogenous 5-HT1ARs.
The behaviour of the mice in the water was recorded using a video camera. The test was performed under red lighting. The cylinder was filled with almost 4 l of water, to a depth that exceeded the distance to which the tail could extend, so the mouse could not balance on its tail at the bottom of the cylinder. […] The mice were placed in the individual glass cylinder (22 cm diameter×37 cm high) for a standard 6-min test; however, the total duration of immobility from the last 4 min of the test was analysed. […]

The test system of a further assay is 5-HT3 receptor. More on the design: method as in PMID 7620711. The note with it: electrophysiology, cited from earlier work.
The test system of the next assay is β2 adrenergic receptors. More on the design: method as in PMID 11752207. To be noted: cited from earlier work.

`[Zn+2]` [Zn, Zinc]: the “cooperativity factor α” value in assay [1] is 0.37. Further, the “decrease in the immobility time” value in assay [2] (5-HT1A autoreceptor KO mice, vs VEH-treated KO mice) is given as 30%. In addition, the “immobility time in the FST” value in assay [2] (wild-type mice) is given as “significant decrease in immobility time”. For the same compound, the “Zn concentrations that depressed the 5-HT-induced response” value in the assay on 5-HT3 receptor (high concentrations) was 30 to 200 µM. In addition, the “Zn concentrations that enhanced the 5-HT-induced response” value with 5-HT3 receptor (low concentrations) is 0.3 to 10 µM. Also, the “effect on agonist affinity” value with β2 adrenergic receptors (5 μM of Zn) was “enhanced agonist affinity”. Further, the “effect on antagonist binding” value in the assay with β2 adrenergic receptors (500 μM of Zn) is reported as “inhibited antagonist binding”.
